Laboratory results: US20160128935A1, “METHOD OF TREATING AN ANIMAL” (priority 2012, published 2016)

Tested on: bacterial infections
Assay: Treatment of cichlids having bacterial infections by feeding injected live worms
Type: in vivo
Details: Emperor and Peacock Cichlids with bacterial infections; one injected live worm per fish for six days
Description: Emperor Cichlids and Peacock Cichlids (fish) having bacterial infections were treated using one live food creature (a live worm) per fish for six days. Each worm was injected with Antibiotic Metronidazole at a measurement of 5 ml in syringe and the worm was injected with as much of the 5 ml as the worm would hold. The injected worms were fed to the fish individually by placing the worm adjacent the fish and feeding was confirmed by observation. The fish ate the treated worms in all cases, showing a vigorous feeding instinct for the live worms. […] It is typical to lose some fish being treated for bacterial infections.

## Cc1ncc([N+](=O)[O-])n1CCO [Metronidazole]
  loss of treated fish: None of the fish so treated were lost
  recovery time (sufficiently recovered to be salable): sufficiently recovered to be salable within seven days
